The source of these data is paper PMC7831380 (ACS chemical biology, 2020).

No end group written: not given here.

The series can be described thus: Overall hydrophobicity from UPLC traces. In kind it is physicochemical. Conditions: Supporting Information Figure S1.

Regarding “TRGFEWLDWEFGLPV (also: bicyclic or more (positions not given here)) [[graft1, 16]kB1]”, the “overall hydrophobicity compared to wild-type kB1” value is listed as “increased overall hydrophobicity”.
For the substance “TRWGLPV (also: bicyclic or more (positions not given here)) [[W^mut, 16]kB1]”, the “overall hydrophobicity compared to wild-type kB1” value is “increased overall hydrophobicity”.
